The supplement of paper PMC10307832

Legend:
Assay in all cases: relative viability (nuclei count vs DMSO), 5 days (fraction); higher = more cells survive
[1] = compound: C1=CC2=NC=CN=C2C=C1/C=C/3\C(=O)NC(=O)S3 + NC(=O)Nc1cc(-c2cccc(F)c2)sc1C(=O)N[C@H]1CCCNC1 [AZD7762] (partner 0.2 µM)
Method in brief: (§1)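 Five library-drug doses in √10 steps were combined with a fixed anchor-drug dose, or a single drug was given alone, by pin tool to lung cancer cell lines in 1536-well plates the day after seeding. Nuclei were stained and counted after 5 days. Relative viability is the nuclei count in treated wells over that in vehicle wells, taken as the median of duplicate plates.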

BGJ398 + Phenformin = compound: CCN1CCN(c2ccc(Nc3cc(N(C)C(=O)Nc4c(Cl)c(OC)cc(OC)c4Cl)ncn3)cc2)CC1 [BGJ398] + N=C(N)NC(=N)NCCc1ccccc1 [Phenformin] (partner 250 µM)
Method in brief: as §1

[2] = compound: C1=CC2=NC=CN=C2C=C1/C=C/3\C(=O)NC(=O)S3 + Cc1cc(Nc2cc(N3CCN(C)CC3)nc(Sc3ccc(NC(=O)C4CC4)cc3)n2)n[nH]1 [Tozasertib] (partner 0.1 µM)
Method in brief: as §1

[3] = compound: C1=CC2=NC=CN=C2C=C1/C=C/3\C(=O)NC(=O)S3 + Nc1nc2[nH]cc(CCc3ccc(C(=O)N[C@@H](CCC(=O)O)C(=O)O)cc3)c2c(=O)[nH]1 [Pemetrexed] (partner 0.2 µM)
Method in brief: as §1

Cell Line | relative viability ([1]; first compound 0.02 µM) | relative viability ([1]; first compound 0.06325 µM) | relative viability ([1]; first compound 0.2 µM) | relative viability ([1]; first compound 0.6325 µM) | relative viability ([1]; first compound 2 µM) | relative viability (BGJ398 + Phenformin; first compound 0.01 µM) | relative viability (BGJ398 + Phenformin; first compound 0.03162 µM) | relative viability (BGJ398 + Phenformin; first compound 0.1 µM) | relative viability (BGJ398 + Phenformin; first compound 0.3162 µM) | relative viability (BGJ398 + Phenformin; first compound 1 µM) | relative viability ([2]; first compound 0.02 µM) | relative viability ([2]; first compound 0.06325 µM) | relative viability ([2]; first compound 0.2 µM) | relative viability ([2]; first compound 0.6325 µM) | relative viability ([2]; first compound 2 µM) | relative viability ([3]; first compound 0.02 µM) | relative viability ([3]; first compound 0.06325 µM) | relative viability ([3]; first compound 0.2 µM) | relative viability ([3]; first compound 0.6325 µM) | relative viability ([3]; first compound 2 µM)
NCI-H1651 | 0.472 | 0.289 | 0.508 | 0.471 | 0.417 | 0.303 | 0.394 | 0.381 | 0.325 | 0.274 | 0.827 | 0.62 | 0.664 | 0.608 | 0.61 | 0.53 | 0.474 | 0.582 | 0.589 | 0.518
NCI-H1666 | 0.748 | 0.731 | 0.865 | 0.827 | 0.608 | 0.55 | 0.609 | 0.622 | 0.581 | 0.557 | 0.591 | 0.617 | 0.575 | 0.674 | 0.603 | 0.898 | 0.548 | 0.838 | 0.96 | 0.759
NCI-H1734 | 0.579 |  | 0.586 | 0.469 | 0.444 | 0.368 | 0.398 | 0.408 | 0.376 | 0.432 | 0.256 | 0.262 | 0.317 | 0.248 | 0.278 | 0.384 |  | 0.427 | 0.436 | 0.362
NCI-H1755 | 0.473 | 0.405 | 0.47 | 0.399 | 0.476 | 0.533 | 0.669 | 0.618 | 0.656 | 0.601 | 0.585 | 0.562 | 0.66 | 0.51 | 0.49 | 0.394 | 0.404 | 0.465 | 0.428 | 0.444
NCI-H1793 | 0.573 | 0.271 | 0.612 | 0.309 | 0.347 | 0.361 | 0.351 | 0.387 | 0.334 | 0.293 | 0.392 | 0.273 | 0.38 | 0.324 | 0.281 | 0.726 | 0.74 | 0.837 | 0.727 | 0.715
NCI-H1915 | 0.704 | 0.712 | 0.705 | 0.703 | 0.713 | 0.374 | 0.367 | 0.365 | 0.354 | 0.367 | 0.452 | 0.48 | 0.41 | 0.418 | 0.428 | 0.463 | 0.456 | 0.489 | 0.478 | 0.483
NCI-H1944 | 0.52 | 0.448 | 0.535 | 0.403 | 0.437 | 0.198 | 0.195 | 0.237 | 0.188 | 0.177 | 0.254 | 0.206 | 0.261 | 0.239 | 0.238 | 0.537 | 0.587 | 0.575 | 0.564 | 0.584
NCI-H1975 | 0.589 | 0.632 | 0.705 | 0.747 | 0.418 | 0.415 | 0.409 | 0.475 | 0.412 | 0.356 | 0.804 | 0.917 | 0.759 | 0.712 | 0.708 | 0.266 | 0.297 | 0.299 | 0.288 | 0.294
NCI-H1993 | 0.772 | 0.801 | 0.963 | 0.538 | 0.432 | 0.554 | 0.485 | 0.479 | 0.523 | 0.575 | 0.545 | 0.593 | 0.612 | 0.543 | 0.436 | 0.528 | 0.665 | 0.607 | 0.54 | 0.449
NCI-H2085 | 0.972 | 0.845 | 0.958 | 0.984 | 0.918 | 0.668 | 0.663 | 0.817 | 0.782 | 0.807 | 0.813 | 0.874 | 0.848 | 0.848 | 0.731 | 0.907 | 0.917 | 0.92 | 0.892 | 0.807
NCI-H2087 | 1.14 | 1.36 | 1.21 | 1.21 | 1.26 | 0.44 | 0.438 | 0.507 | 0.386 | 0.494 | 0.206 | 0.273 | 0.212 | 0.243 | 0.238 | 0.612 | 0.734 | 0.632 | 0.623 | 0.615
NCI-H2126 | 0.886 | 1.16 | 0.952 | 0.937 | 0.581 | 0.505 | 0.57 | 0.541 | 0.547 | 0.475 | 0.841 | 0.882 | 0.857 | 0.759 | 0.528 | 0.65 | 0.772 | 0.684 | 0.713 | 0.463
NCI-H2170 | 0.849 | 0.866 | 0.888 | 0.766 | 0.874 | 0.374 | 0.428 | 0.448 | 0.393 | 0.341 | 0.6 | 0.697 | 0.689 | 0.734 | 0.795 | 0.29 | 0.268 | 0.287 | 0.278 | 0.263
NCI-H2342 | 0.377 | 0.47 | 0.453 | 0.397 | 0.335 | 0.574 | 0.629 | 0.704 | 0.572 | 0.657 | 0.438 | 0.561 | 0.688 | 0.465 | 0.469 | 0.615 | 0.859 | 0.713 | 0.759 | 0.644
NCI-H2347 | 0.773 | 0.692 | 0.778 | 0.745 | 0.704 | 0.292 | 0.602 | 0.507 | 0.434 | 0.496 | 0.553 | 0.554 | 0.546 | 0.633 | 0.601 | 0.417 | 0.447 | 0.427 | 0.444 | 0.408
NCI-H2405 | 0.824 | 0.924 | 0.762 | 0.722 | 0.428 | 0.394 | 0.432 | 0.377 | 0.394 | 0.371 | 0.764 | 0.768 | 0.73 | 0.727 | 0.637 | 1.1 | 1.28 | 1.22 | 1.05 | 0.859
